Reference: patent publication US11180521B2, “Nicotinamide riboside analogs, pharmaceutical compositions, and uses thereof” (Metro International Biotech, LLC, priority 2018, dated 2021)

How the values were obtained:
[1] = tested on: NAD, NAAD, NAM, and NMN levels in skeletal muscle; test: PK/PD duration of effect study, single oral gavage dose: NAD, NAAD, NAM and NMN levels in skeletal muscle; format: in vivo, C57BL/6 mice; set-up: key to NAAD concentration: BQL: Below quantitation limit; BDL: Below Detection Limit, No Peak Detected
Method: (§1) Transcyclohexyl nicotinic acid riboside (NaR) dimer was administered by oral gavage at a dose of 500 mg/kg in an Ethanol/PBS, pH 7.4/PEG400 (10/30/60) vehicle. The dosing volume was 5 ml/kg at a solution concentration of 100 mg/ml. The solution concentration was increased for the presence of counterion.
(§2) Animals were fasted for 16 hours prior to dosing. Samples were collected pre-dose and at 0.25, 0.75, 1, 2, 4, 8 and 24 hr post dosing. Following euthanasia, the entire liver and skeletal muscle (gastrocnemius with attached soleus muscle, bilateral) were rinsed with 0.9% saline, and frozen for later bioanalysis. Samples were maintained frozen at −80° C. until bioanalysis.
(§3) Samples were thawed, homogenized, extracted and analyzed by LC-MS on the same day. The LC used was a Shimadzu Nexera UPLC, and the mass spectrometer was an AB Sciex Qtrap 6500. Specimens were analyzed for levels of administered compound (transcyclohexyl NaR dimer), as well as for levels of NAD, NAAD, NAM, and NMN by the method of standard addition, to detect alterations from the basal levels of the analytes. Calibration standards for quantifying administered compound were prepared using transcyclohexyl NaR dimer in mouse liver or skeletal muscle homogenates. Corresponding standards for quantifying other metabolites were also prepared. Data are calculated as the mean concentration from n=6 animals per time point.

[2] = tested on: NAD, NAAD, NAM, and NMN levels in liver; test: PK/PD duration of effect study, single oral gavage dose: NAD, NAAD, NAM and NMN levels in liver; format: in vivo, C57BL/6 mice; set-up: key to NAAD concentration: BQL: Below quantitation limit; BDL: Below Detection Limit, No Peak Detected; settings: for NAAD concentration: pre-dose BDL
Method: as §1, §2, §3

`CC(=O)OC[C@H]1O[C@@H]([n+]2cccc(C(=O)O[C@H]3CC[C@H](OC(=O)c4ccc[n+]([C@@H]5O[C@H](COC(C)=O)[C@@H](OC(C)=O)[C@H]5OC(C)=O)c4)CC3)c2)[C@H](OC(C)=O)[C@@H]1OC(C)=O` [transcyclohexyl NaR dimer, Transcyclohexyl nicotinic acid riboside (NaR) dimer] was tested, and the NMN concentration ([1]; 8 hr after 500 mg/kg oral gavage, pre-dose 0.00225) was 0.00245 mmol/kg, the NAM concentration ([1]; 8 hr after 500 mg/kg oral gavage, pre-dose 0.159) was 0.170 mmol/kg and the NMN concentration ([1]; 8 hr after 500 mg/kg oral gavage, pre-dose 0.752) was 0.818 µg/g. For the same compound, the NAD concentration ([1]; 8 hr after 500 mg/kg oral gavage, pre-dose 0.781) was 0.648 mmol/kg, the NAM concentration ([1]; 8 hr after 500 mg/kg oral gavage, pre-dose 19.4) was 20.8 µg/g and the NAD concentration ([1]; 8 hr after 500 mg/kg oral gavage, pre-dose 518) was 430 µg/g. For the same compound, the NMN concentration ([1]; 24 hr after 500 mg/kg oral gavage, pre-dose 0.00225) was 0.00199 mmol/kg, the NAM concentration ([1]; 24 hr after 500 mg/kg oral gavage, pre-dose 0.159) was 0.155 mmol/kg and the NMN concentration ([1]; 24 hr after 500 mg/kg oral gavage, pre-dose 0.752) was 0.665 µg/g. For the same compound, the NAD concentration ([1]; 24 hr after 500 mg/kg oral gavage, pre-dose 0.781) was 0.635 mmol/kg, the NAM concentration ([1]; 24 hr after 500 mg/kg oral gavage, pre-dose 19.4) was 18.9 µg/g and the NAD concentration ([1]; 24 hr after 500 mg/kg oral gavage, pre-dose 518) was 421 µg/g. The NAAD concentration ([1]; 24 hr after 500 mg/kg oral gavage, pre-dose BDL) was “BDL”, the NMN concentration ([2]; 0.25 hr after 500 mg/kg oral gavage, pre-dose 0.00637) was 0.00556 mmol/kg and the NAM concentration ([2]; 0.25 hr after 500 mg/kg oral gavage, pre-dose 0.430) was 0.481 mmol/kg. It also gave an NAD concentration ([2]; 0.25 hr after 500 mg/kg oral gavage, pre-dose 1.08) of 0.938 mmol/kg, an NMN concentration ([2]; 0.25 hr after 500 mg/kg oral gavage, pre-dose 2.13) of 1.86 µg/g and an NAM concentration ([2]; 0.25 hr after 500 mg/kg oral gavage, pre-dose 52.5) of 58.7 µg/g. For the same compound, the NAD concentration ([2]; 0.25 hr after 500 mg/kg oral gavage, pre-dose 713) was 623 µg/g, the NAAD concentration ([2]; 0.25 hr after 500 mg/kg oral gavage) was “BDL” and the NMN concentration ([2]; 0.75 hr after 500 mg/kg oral gavage, pre-dose 0.00637) was 0.00977 mmol/kg. For the same compound, the NAM concentration ([2]; 0.75 hr after 500 mg/kg oral gavage, pre-dose 0.430) was 1.69 mmol/kg, the NAD concentration ([2]; 0.75 hr after 500 mg/kg oral gavage, pre-dose 1.08) was 0.493 mmol/kg and the NMN concentration ([2]; 0.75 hr after 500 mg/kg oral gavage, pre-dose 2.13) was 3.26 µg/g. The NAM concentration ([2]; 0.75 hr after 500 mg/kg oral gavage, pre-dose 52.5) was 206 µg/g, the NAD concentration ([2]; 0.75 hr after 500 mg/kg oral gavage, pre-dose 713) was 327 µg/g and the NAAD concentration ([2]; 0.75 hr after 500 mg/kg oral gavage) was “BDL”. For the same compound, the NMN concentration ([2]; 1 hr after 500 mg/kg oral gavage, pre-dose 0.00637) was 0.00945 mmol/kg, the NAM concentration ([2]; 1 hr after 500 mg/kg oral gavage, pre-dose 0.430) was 1.48 mmol/kg and the NAD concentration ([2]; 1 hr after 500 mg/kg oral gavage, pre-dose 1.08) was 0.575 mmol/kg. The NMN concentration ([2]; 1 hr after 500 mg/kg oral gavage, pre-dose 2.13) was 3.16 µg/g, the NAM concentration ([2]; 1 hr after 500 mg/kg oral gavage, pre-dose 52.5) was 181 µg/g and the NAD concentration ([2]; 1 hr after 500 mg/kg oral gavage, pre-dose 713) was 381 µg/g. The NAAD concentration ([2]; 1 hr after 500 mg/kg oral gavage) was “BDL”, the NMN concentration ([2]; 2 hr after 500 mg/kg oral gavage, pre-dose 0.00637) was 0.00706 mmol/kg and the NAM concentration ([2]; 2 hr after 500 mg/kg oral gavage, pre-dose 0.430) was 0.660 mmol/kg. For the same compound, the NAD concentration ([2]; 2 hr after 500 mg/kg oral gavage, pre-dose 1.08) was 1.19 mmol/kg, the NMN concentration ([2]; 2 hr after 500 mg/kg oral gavage, pre-dose 2.13) was 2.36 µg/g and the NAM concentration ([2]; 2 hr after 500 mg/kg oral gavage, pre-dose 52.5) was 80.6 µg/g. For the same compound, the NAD concentration ([2]; 2 hr after 500 mg/kg oral gavage, pre-dose 713) was 787 µg/g, the NMN concentration ([2]; 4 hr after 500 mg/kg oral gavage, pre-dose 0.00637) was 0.0146 mmol/kg and the NAM concentration ([2]; 4 hr after 500 mg/kg oral gavage, pre-dose 0.430) was 0.791 mmol/kg. It also gave an NAD concentration ([2]; 4 hr after 500 mg/kg oral gavage, pre-dose 1.08) of 2.23 mmol/kg, an NMN concentration ([2]; 4 hr after 500 mg/kg oral gavage, pre-dose 2.13) of 4.87 µg/g and an NAM concentration ([2]; 4 hr after 500 mg/kg oral gavage, pre-dose 52.5) of 96.5 µg/g. The NAD concentration ([2]; 4 hr after 500 mg/kg oral gavage, pre-dose 713) was 1478 µg/g, the NMN concentration ([2]; 8 hr after 500 mg/kg oral gavage, pre-dose 0.00637) was 0.0250 mmol/kg and the NAM concentration ([2]; 8 hr after 500 mg/kg oral gavage, pre-dose 0.430) was 0.609 mmol/kg. It also gave an NAD concentration ([2]; 8 hr after 500 mg/kg oral gavage, pre-dose 1.08) of 4.92 mmol/kg, an NMN concentration ([2]; 8 hr after 500 mg/kg oral gavage, pre-dose 2.13) of 8.34 µg/g and an NAM concentration ([2]; 8 hr after 500 mg/kg oral gavage, pre-dose 52.5) of 74.3 µg/g. The NAD concentration ([2]; 8 hr after 500 mg/kg oral gavage, pre-dose 713) was 3267 µg/g, the NMN concentration ([2]; 24 hr after 500 mg/kg oral gavage, pre-dose 0.00637) was 0.00459 mmol/kg and the NAM concentration ([2]; 24 hr after 500 mg/kg oral gavage, pre-dose 0.430) was 0.381 mmol/kg. For the same compound, the NAD concentration ([2]; 24 hr after 500 mg/kg oral gavage, pre-dose 1.08) was 1.10 mmol/kg, the NMN concentration ([2]; 24 hr after 500 mg/kg oral gavage, pre-dose 2.13) was 1.53 µg/g and the NAM concentration ([2]; 24 hr after 500 mg/kg oral gavage, pre-dose 52.5) was 46.6 µg/g. The NAD concentration ([2]; 24 hr after 500 mg/kg oral gavage, pre-dose 713) was 731 µg/g and the NAAD concentration ([2]; 24 hr after 500 mg/kg oral gavage) was “BDL”.
